SMILES strings stand for the structures. Some results are limits rather than exact numbers.

The target of this test is T1, Microsomal triglyceride transfer protein (MTP) from bovine liver (Bos taurus, UniProt P55156).
T1 construct: the purified MTP was used for the test; from tissue; host or cells: bovine liver
T1 sequence (P55156 12-887): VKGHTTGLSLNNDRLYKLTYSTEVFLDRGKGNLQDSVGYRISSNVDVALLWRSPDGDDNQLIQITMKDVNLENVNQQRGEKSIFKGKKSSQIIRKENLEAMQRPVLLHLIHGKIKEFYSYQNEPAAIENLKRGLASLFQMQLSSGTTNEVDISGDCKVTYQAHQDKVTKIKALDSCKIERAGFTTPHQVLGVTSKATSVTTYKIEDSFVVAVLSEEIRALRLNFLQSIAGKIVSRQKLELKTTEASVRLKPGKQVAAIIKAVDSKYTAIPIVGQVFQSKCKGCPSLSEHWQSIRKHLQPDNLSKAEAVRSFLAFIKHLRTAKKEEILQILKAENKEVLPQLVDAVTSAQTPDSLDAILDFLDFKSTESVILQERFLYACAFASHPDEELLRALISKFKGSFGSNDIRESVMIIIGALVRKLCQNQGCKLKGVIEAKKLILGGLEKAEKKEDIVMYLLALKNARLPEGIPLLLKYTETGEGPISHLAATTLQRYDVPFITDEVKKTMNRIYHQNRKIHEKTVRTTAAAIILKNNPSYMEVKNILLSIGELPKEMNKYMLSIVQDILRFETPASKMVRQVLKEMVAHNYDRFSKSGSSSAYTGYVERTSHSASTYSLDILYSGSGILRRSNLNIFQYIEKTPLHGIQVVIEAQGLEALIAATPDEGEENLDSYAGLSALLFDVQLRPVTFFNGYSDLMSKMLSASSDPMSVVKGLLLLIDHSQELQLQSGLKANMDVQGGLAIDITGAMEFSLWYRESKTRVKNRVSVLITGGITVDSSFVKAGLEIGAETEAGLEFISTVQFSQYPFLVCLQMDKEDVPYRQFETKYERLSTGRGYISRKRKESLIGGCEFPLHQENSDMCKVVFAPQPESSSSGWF
T1 sequence (P05307 21-510 partner): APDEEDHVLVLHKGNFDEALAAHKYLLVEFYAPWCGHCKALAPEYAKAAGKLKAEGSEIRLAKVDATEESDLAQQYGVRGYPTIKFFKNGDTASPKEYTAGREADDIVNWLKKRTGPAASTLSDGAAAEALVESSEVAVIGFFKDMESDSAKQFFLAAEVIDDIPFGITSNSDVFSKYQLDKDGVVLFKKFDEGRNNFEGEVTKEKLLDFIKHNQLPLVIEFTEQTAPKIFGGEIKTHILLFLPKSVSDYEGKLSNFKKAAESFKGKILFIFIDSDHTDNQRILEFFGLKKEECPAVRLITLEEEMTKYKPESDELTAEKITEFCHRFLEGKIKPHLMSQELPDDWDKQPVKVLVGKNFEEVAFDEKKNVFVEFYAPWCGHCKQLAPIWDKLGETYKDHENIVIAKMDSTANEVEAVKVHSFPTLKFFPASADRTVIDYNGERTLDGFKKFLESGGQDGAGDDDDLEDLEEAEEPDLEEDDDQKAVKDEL
In words: Inhibition of interliposomal triglyceride (TG) transfer activity by MTP. The class given is biochemical. As to conditions: MTP-mediated TG transfer between donor and acceptor liposomes, 37° C., one hour. Here is the method: Microsomal triglyceride transfer protein (MTP) from bovine liver was partially purified in such a way described below. A buffer (50 mM Tris, 250 mM sucrose, 1 mM EDTA, 0.02% NaN3 (pH 7.4)) for making a homogenate preparation was added to bovine liver, and the mixture was homogenated under ice-cooling, then centrifuged at 10,000×g (4° C., 30 minutes) The supernatant was adjusted to pH 5.1 with hydrochloric acid, and stirred for 30 minutes. The solution was further centrifuged at 10,000×g (4° C., 30 minutes), and 1 mM Tris buffer was added to the precipitated residue, and the mixture was adjusted to pH 8.6 with sodium hydroxide. After addition of 2.7 M ammonium sulfate solution, the mixture was stirred for 30 minutes, then centrifuged at 10,000×g (4° C., 40 minutes). The resulting supernatant was served as a crude extraction fraction of MTP and stored at −80° C. under freezing. In its practical use, the crude extraction fraction of MTP was purified by column chromatography on diethylaminoethyl (DEAE) Sepharose using FPLC (Fast Performance Liquid Chromatography) system, and the purified MTP was used for the test.
Small unilamellar-vesicle (SUV) liposome (donor, 0.25 mol % triolein, 5 mol % cardiolipin) labeled with ^14C-triolein and non-labeled SUV liposome (acceptor, 0.25 mol % triolein) were prepared. A fixed amount of donor and acceptor, and MTP were mixed with a sample dissolved in DMSO or with DMSO. The mixture was incubated in a 15 mM Tris hydrochloride buffer (pH 7.4) containing 40 mM sodium chloride, 1 mM EDTA (ethylenediaminetetraacetic acid), 0.02% NaN3 and 0.5% bovine serum albumin at 37° C. for one hour. After completion of the incubation, a suspension of DEAE cellulose (50% v/v) in 15 mM Tris hydrochloride buffer (pH 7.4) was added to the above solution, and the mixture was centrifuged to separate the donor and the acceptor. The radioactivity in the acceptor was measured by liquid scintillation counter. The value obtained by subtracting the radioactivity in the blank from the amount of radioactivity in the acceptor of a DMSO group was determined as MTP-mediated TG transfer activity, and it was compared with the value obtained by subtracting the radioactivity in the blank from the radioactivity in a sample group. The blank was prepared by adding 15 mM Tris-HCl buffer (pH 7.4) in place of MTP. Inhibition rate (%) was calculated from the values obtained according to the following equation.
Inhibition rate (%)=100×(1 minus ((radioactivity of sample group minus radioactivity of blank group)/(radioactivity of DMSO group minus radioactivity of blank group))). 50% Inhibition rate (IC50) was determined on the basis of the above equation.

`CCOC(=O)C(COC(=O)Oc1ccc2c(c1)N(C(C)C)C(=O)CN2C(=O)c1ccccc1-c1ccc(C(F)(F)F)cc1)(C(=O)OCC)c1ccccc1` [Example 2-2, 2-[4-Isopropyl-3-oxo-1-(4′-trifluoromethylbiphenyl-2-carbonyl)-1,2,3,4-tetrahydroquinoxalin-6-yloxycarbonyloxymethyl]-2-phenylmalonic acid diethyl ester]: the IC50 was less than 10 nM. On to `CCNC(=O)C(CCCC(=O)Oc1c(F)cc(NC(=O)c2ccccc2-c2ccc(C(F)(F)F)cc2)c(C(=O)N(C)C)c1F)(C(=O)NCC)c1cccs1` [Example 3-17], for which the IC50 fell in the range of 10 to 100 nM. Then `CCOC(=O)C(CCC(=O)Oc1cc(C(=O)N(C)C)c(NC(=O)c2ccccc2-c2ccc(C(F)(F)F)cc2)cc1F)(C(=O)OCC)c1ccccc1` [Example 3-6], with less than 10 nM. Then `CCOC(=O)C(COC(=O)Oc1ccc(NC(=O)c2cccnc2-c2ccc(C(F)(F)F)cc2)c(C(=O)N(C)C)c1)(C(=O)OCC)c1ccccc1` [Example 2-25], with less than 10 nM; and `CCOC(=O)C(COC(=O)Oc1c(F)cc(NC(=O)c2ccccc2-c2ccc(C(F)(F)F)cc2)c(OC(=O)N(C)C)c1F)(C(=O)OCC)c1cccs1` [Example 2-50], with 10 to 100 nM; and `CCOC(=O)C(COC(=O)Oc1cc(C(=O)N(C)C)c(NC(=O)c2ccccc2-c2ccc(C(F)(F)F)cc2)cc1F)(C(=O)OCC)c1ccccc1` [Example 2, 2-{5-Dimethylcarbamoyl-2-fluoro-4-[(4′-trifluoromethyl-biphenyl-2-carbonyl)amino]phenoxycarbonyloxymethyl}-2-phenylmalonic acid diethyl ester], with less than 10 nM. As for `CCOC(=O)C(COC(=O)Oc1ccc(NC(=O)c2ccccc2-c2ccc(C(F)(F)F)cc2)c(C(=O)N(C)C)c1)(C(=O)OCC)c1ccccc1` [Example 2-4], the IC50 is less than 10 nM. For `CCOC(=O)C(COC(=O)Oc1cc(C(=O)N(C)C)c(NC(=O)c2ccccc2-c2ccc(C(F)(F)F)cc2)cc1C)(C(=O)OCC)c1ccccc1` [Example 2-15] the value was less than 10 nM; for `CCOC(=O)C(COC(=O)Oc1c(F)cc(NC(=O)c2cccc(C)c2-c2ccc(C(F)(F)F)cc2)c(C(=O)N(C)C)c1F)(C(=O)OCC)c1cccs1` [Example 2-34], less than 10 nM. Compound `CCN(C)C(=O)C(CCCC(=O)Oc1c(F)cc(NC(=O)c2ccccc2-c2ccc(C(F)(F)F)cc2)c(C(=O)N(C)C)c1F)(C(=O)N(C)CC)c1ccccc1` [Example 3-19] had an IC50 of 100 to 1000 nM. With `CCOC(=O)C(COC(=O)Oc1c(F)cc(NC(=O)c2ccccc2-c2ccc(C(F)(F)F)cc2)c(C(=O)N(C)CCOC)c1F)(C(=O)OCC)c1cccs1` [Example 2-41], the IC50 was less than 10 nM. For `CCOC(=O)C(COC(=O)Oc1c(F)cc(NC(=O)c2ccc(C)nc2-c2ccc(C(F)(F)F)cc2)c(C(=O)N(C)C)c1F)(C(=O)OCC)c1cccs1` [Example 2-30] the value was less than 10 nM; for `CCOC(=O)C(COC(=O)Oc1ccc(N(C)C(=O)c2ccccc2-c2ccc(C(F)(F)F)cc2)c(C(=O)N(C)C)c1)(C(=O)OCC)c1ccccc1` [Example 2-17], 100 to 1000 nM.

In turn, `CCOC(=O)C(CCC(=O)Oc1ccc(N(C)C(=O)c2ccccc2-c2ccc(C(F)(F)F)cc2)c(C(=O)N(C)C)c1)(C(=O)OCC)c1ccccc1` [Example 3-8] had an IC50 of less than 10 nM.

As for `CCOC(=O)C(COC(=O)Oc1c(F)cc(NC(=O)c2ccccc2-c2ccc(C(F)(F)F)cc2)c(C(=O)N2CCN(C(C)=O)CC2)c1F)(C(=O)OCC)c1cccs1` [Example 2-46], the IC50 was in the range of 100 to 1000 nM.

`CCOC(=O)C(COC(=O)Oc1ccc(NC(=O)c2ccccc2-c2ccc(C(F)(F)F)cc2)c(C(=O)N(C)C)c1)(C(=O)OCC)c1cccs1` [Example 2-7] returned an IC50 of less than 10 nM. Then `CCOC(=O)C(COC(=O)Oc1ccc(NC(=O)c2ccccc2-c2ccc(C(F)(F)F)cc2)c(C(=O)N(C)C)c1)(C(=O)OCC)c1ccccn1` [Example 2-18], with less than 10 nM; and `CCOC(=O)C(COC(=O)Oc1c(F)cc(NC(=O)c2ccccc2-c2ccc(C(F)(F)F)cc2)c(C(=O)N2CCOCC2)c1F)(C(=O)OCC)c1cccs1` [Example 2-38], with 10 to 100 nM; and `CCOC(=O)C(CCC(=O)Oc1c(F)cc(NC(=O)c2ccccc2-c2ccc(C(F)(F)F)cc2)c(C(=O)NC)c1F)(C(=O)OCC)c1ccccc1` [Example 3-10], with less than 10 nM. Then `CCOC(=O)C(COC(=O)Oc1ccc(NC(=O)c2ccccc2-c2ccc(C(F)(F)F)cc2)c(C(=O)N(C)C)c1Cl)(C(=O)OCC)c1ccccc1` [Example 2-22], with less than 10 nM; and `CCOC(=O)C(CC(=O)Oc1ccc(NC(=O)c2ccccc2-c2ccc(C(F)(F)F)cc2)c(C(=O)N(C)C)c1)(C(=O)OCC)c1ccccc1` [Example 3-4], with less than 10 nM; and `CCOC(=O)C(COC(=O)Oc1c(F)cc(NC(=O)c2ccccc2-c2ccc(C(F)(F)F)cc2)c(C(=O)N(C)C)c1F)(C(=O)OCC)c1ccccc1` [Example 2-20], with 10 to 100 nM. For `CCOC(=O)C(COC(=O)Oc1c(F)cc(NC(=O)c2ccccc2-c2ccc(C(F)(F)F)cc2)c(C(=O)N(C)C)c1F)(C(=O)OCC)c1nccs1` [Example 2-44], the IC50 lay within 10 to 100 nM. Compound `CCOC(=O)C(COC(=O)Oc1c(F)cc(NC(=O)c2ccccc2-c2ccc(C(F)(F)F)cc2)c(C(=O)N(C)C)c1F)(C(=O)OCC)c1cccs1` [Example 2-26] yielded an IC50 of less than 10 nM.

Take `CCOC(=O)C(CC(=O)OCc1ccc(NC(=O)c2ccccc2-c2ccc(C(F)(F)F)cc2)c(C(=O)N(C)C)c1)(C(=O)OCC)c1ccccn1` [Example 3-23]: the IC50 is less than 10 nM. For `CCOC(=O)C(COC(=O)Oc1c(F)cc(NC(=O)c2cc(C)ccc2-c2ccc(C(F)(F)F)cc2)c(C(=O)N(C)C)c1F)(C(=O)OCC)c1cccs1` [Example 2-35] the value was 10 to 100 nM. For `CCOC(=O)C(CCC(=O)OCc1ccc(NC(=O)c2ccccc2-c2ccc(C(F)(F)F)cc2)c(C(=O)N(C)C)c1)(C(=O)OCC)c1ccccc1` [Example 3-7], the IC50 is less than 10 nM. The compound `CCOC(=O)C(COC(=O)Oc1ccc(NC(=O)c2ccc(C)nc2-c2ccc(C(F)(F)F)cc2)c(C(=O)N(C)C)c1)(C(=O)OCC)c1ccccc1` [Example 2-19] came in with an IC50 of less than 10 nM. For the compound `CCOC(=O)C(COC(=O)Oc1c(F)cc(NC(=O)c2ccccc2-c2ccc(C(F)(F)F)cc2)cc1F)(C(=O)OCC)c1cccs1` [Example 2-49], the IC50 is less than 10 nM.

The values are drawn from patent US7432392B2, “Ester derivatives and medical use thereof” (Japan Tobacco Inc., priority 2003, dated 2008).
